Values after ≈ are worked out from the molar mass of the structure shown. Values joined by “and” are separate entries in the source; they are usually repeats but may differ in a detail not shown here. Equal entries are not always repeated.
What was measured:
[1] = Compound was tested in vitro for antiviral activity against Punta Toro (PT) virus (Concentration required for the 50%inhibition of virus-induced cell death); inactive; format: functional
[2] = Compound was tested in vitro for antiviral activity against Punta Toro (PT) virus (Concentration which was cytotoxic to 50% of uninfected cells); conditions: read-out: TC50 (the source's name)
[3] = Compound was tested in vitro for antiviral activity against sandfly fever-Sicilian (SF) virus (Concentration which was cytotoxic to 50% of uninfected cells); conditions: read-out: TC50 (the source's name)
[4] = Compound was tested in vitro for antiviral activity against sandfly fever-Sicilian (SF) virus (Concentration required for the 50%inhibition of virus-induced cell death); inactive; format: functional
[5] = Compound was tested in vitro for antiviral activity against Punta Toro (PT) virus (Concentration required for the 50%inhibition of virus-induced cell death); IA - Viral cytopathic effect reduced 25%-49% only.; format: functional
[6] = Therapeutic index is expressed as ratio of TC50/IC50; conditions: for selectivity ratio: read-out: TI50
[7] = Compound was tested in vitro for antiviral activity against sandfly fever-Sicilian (SF) virus (Concentration required for the 50%inhibition of virus-induced cell death); format: functional
[8] = Compound was tested in vitro for antiviral activity against Punta Toro (PT) virus (Concentration required for the 50%inhibition of virus-induced cell death); format: functional
[9] = Compound was tested in vitro for antiviral activity against dengue-4-virus (Concentration which was cytotoxic to 50% of uninfected cells); conditions: dengue virus type 4, uninfected cells; read-out: TC50 (the source's name)
[10] = Compound was tested in vitro for antiviral activity against influenza A virus (Concentration which was cytotoxic to 50% of uninfected cells); format: organism-based; conditions: read-out: TC50 (the source's name)
[11] = system: Influenza A virus; experiment: Compound was tested in vitro for antiviral activity against influenza B virus (Concentration required for the 50%inhibition of virus-induced cell death); format: functional, organism-based
[12] = system: Vaccinia virus; experiment: Compound was tested in vitro for antiviral activity against vaccinia virus (Concentration required for the 50%inhibition of virus-induced cell death); format: functional, organism-based; conditions: Orthopoxvirus vaccinia
[13] = Compound was tested in vitro for antiviral activity against vaccinia virus (Concentration which was cytotoxic to 50% of uninfected cells); format: organism-based; conditions: orthopoxvirus vaccinia, read-out: TC50 (the source's name)
[14] = system: Respiratory syncytial virus; experiment: Compound was tested in vitro for antiviral activity against respiratory syncitial virus (Concentration required for the 50%inhibition of virus-induced cell death); format: functional, organism-based; conditions: human respiratory syncytial virus
[15] = Compound was tested in vitro for antiviral activity against respiratory syncitial virus (Concentration which was cytotoxic to 50% of uninfected cells); conditions: read-out: TC50 (the source's name)
[16] = system: dengue virus type 4; experiment: Compound was tested in vitro for antiviral activity against dengue-4- virus (Concentration required for the 50%inhibition of virus-induced cell death); format: functional, organism-based
[17] = Compound was tested in vitro for antiviral activity against parainfluenza type 3 virus (Concentration which was cytotoxic to 50% of uninfected cells); conditions: human respirovirus 3, uninfected cells; read-out: TC50 (the source's name)
[18] = system: Human respirovirus 3; experiment: Compound was tested in vitro for antiviral activity against parainfluenza type 3 virus (Concentration required for the 50%inhibition of virus-induced cell death); format: functional, organism-based
[19] = system: Influenza A virus; experiment: Compound was tested in vitro for antiviral activity against influenza A virus (Concentration required for the 50%inhibition of virus-induced cell death); format: functional, organism-based
[20] = system: dengue virus type 4; experiment: Compound was tested in vitro for antiviral activity against dengue-4-virus (Concentration required for the 50%inhibition of virus-induced cell death); format: functional, organism-based
[21] = Compound was tested in vitro for antiviral activity against dengue-4- virus (Concentration which was cytotoxic to 50% of uninfected cells); conditions: read-out: TC50 (the source's name)

SMILES | IC50 [1] | CC50 [2] [µg/mL] | CC50 [3] [µg/mL] | IC50 [4] | selectivity ratio [6] | IC50 [7] [µg/mL] | IC50 [8] [µg/mL] | further results
CNC(=O)c1ncn([C@@H]2O[C@H](CO)[C@@H](O)[C@H]2O)n1 | Not Active | > 320 | > 320 | Not Active |  |  |  | 
N/C(=N/CC(=O)O)c1ncn(C2O[C@H](CO)[C@@H](O)[C@H]2O)n1 (some centres not stated) |  | > 1000 | > 3200 |  | > 5.66 | 566 (≈ 1880 µM) |  | IC50 [5]: Not Active
NC(=O)CCC(/N=C(/N)c1ncn(C2O[C@H](CO)[C@@H](O)[C@H]2O)n1)C(=O)O (some centres not stated) |  | > 3200 | > 3200 |  |  | 547 (≈ 1470 µM) | 2690 (≈ 7220 µM) | 
Cl.OC[C@H]1O[C@@H](n2cnc(C3=NCCCN3)n2)[C@H](O)[C@@H]1O | Not Active | > 3200 | > 3200 | Not Active |  |  |  | 
Cl.OC[C@H]1O[C@@H](n2cnc(C3=NCC(O)CN3)n2)[C@H](O)[C@@H]1O (some centres not stated) | Not Active | > 320 | > 320 | Not Active |  |  |  | 
Cl.N=C(N)c1ncn([C@@H]2O[C@H](CO)[C@@H](O)[C@H]2O)n1 [TARIBAVIRIN HYDROCHLORIDE] |  | 752 | 800 |  |  | 36 | 83 | CC50 [9]: 250 µg/mL; CC50 [10]: > 1000 µg/mL; IC50 [11]: 48 µg/mL; IC50 [12]: 59 µg/mL; CC50 [13]: > 320 µg/mL; IC50 [14]: 16 µg/mL; CC50 ([15]; human respiratory syncytial virus): > 1000 µg/mL; IC50 [16]: 100 µg/mL
CCCC/N=C(/N)c1ncn(C2O[C@H](CO)[C@@H](O)[C@H]2O)n1 (some centres not stated) |  | 660 (≈ 2200 µM) | > 1000 |  | 13.7 | 73 (≈ 244 µM) | 41 (≈ 137 µM) | TI50 [6]: 16
C/N=C(/N)c1ncn([C@@H]2O[C@H](CO)[C@@H](O)[C@H]2O)n1.Cl |  | > 1000 | > 1000 |  |  | 104 | 250 | CC50 [17]: > 1000 µg/mL; CC50 [10]: > 1000 µg/mL; IC50 [18]: 125 µg/mL; IC50 [12]: 198 µg/mL; CC50 [13]: > 320 µg/mL; IC50 [14]: 24 µg/mL; CC50 ([15]; respiratory syncytial virus): > 1000 µg/mL; IC50 [19]: 63 µg/mL
COC(=N)c1ncn([C@@H]2O[C@H](CO)[C@@H](O)[C@H]2O)n1 |  | 744 (≈ 2880 µM) | 840 (≈ 3250 µM) |  |  | 98 (≈ 380 µM) | 201 (≈ 778 µM) | IC50 [20]: 76 µg/mL (≈ 294 µM); CC50 [9]: > 250 µg/mL; TI50 [6]: 8.6 and 3.7 and > 3.3
CCCCCCCC/N=C(/N)c1ncn(C2O[C@H](CO)[C@@H](O)[C@H]2O)n1 (some centres not stated) | Not Active | > 1000 | > 1000 |  | > 3 | 339 (≈ 954 µM) |  | 
NC(=O)CC(/N=C(/N)c1ncn(C2O[C@H](CO)[C@@H](O)[C@H]2O)n1)C(=O)O (some centres not stated) |  | > 3200 | > 3200 |  |  | 484 (≈ 1350 µM) | 1600 (≈ 4470 µM) | 
C/N=C(\NC)c1ncn([C@@H]2O[C@H](CO)[C@@H](O)[C@H]2O)n1.Cl |  | 2900 | > 1000 |  |  | 94 | 181 | IC50 [20]: 162 µg/mL; CC50 [9]: > 250 µg/mL; IC50 [12]: 184 µg/mL; CC50 [13]: > 1000 µg/mL
N#C/N=C(/N)c1ncn(C2O[C@H](CO)[C@@H](O)[C@H]2O)n1 (some centres not stated) | Not Active | > 1000 | > 1000 | Not Active | > 1 |  |  | CC50 [21]: > 250 µg/mL; IC50 [16]: 250 µg/mL (≈ 932 µM)

Reference: ChEMBL document CHEMBL1125541, “Synthesis and antiviral evaluation of N-carboxamidine-substituted analogues of 1-beta-D-ribofuranosyl-1,2,4-triazole-3-carboxamidine hydrochloride” (J Med Chem, 1992)
